Holding throughout (assay): relative viability (nuclei count vs DMSO), 5 days (fraction); higher = more cells survive
Compound in the assay “Venetoclax + Alpelisib”: CC1(C)CCC(CN2CCN(c3ccc(C(=O)NS(=O)(=O)c4ccc(NCC5CCOCC5)c([N+](=O)[O-])c4)c(Oc4cnc5[nH]ccc5c4)c3)CC2)=C(c2ccc(Cl)cc2)C1 [Venetoclax] + Cc1nc(NC(=O)N2CCC[C@H]2C(N)=O)sc1-c1ccnc(C(C)(C)C(F)(F)F)c1 [Alpelisib] (partner 2 µM)
An outline of the steps:
(§1)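 Lung cancer cell lines in 1536-well plates were dosed by pin tool the day after seeding, either with one drug alone or with a fixed anchor-drug dose plus five library-drug doses (not always all listed) in √10 steps. After 5 days, cells were fixed and their nuclei stained in one step (final 0.05% Triton X-100, 1% formaldehyde, 1 ug/ml Hoechst), then counted on 4× images. Relative viability is the nuclei count in treated wells divided by that in vehicle wells. Values are medians of duplicate plates.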

Compound in the assay “Selumetinib + Pemetrexed”: Cn1cnc2c(F)c(Nc3ccc(Br)cc3Cl)c(C(=O)NOCCO)cc21 [Selumetinib] + Nc1nc2[nH]cc(CCc3ccc(C(=O)N[C@@H](CCC(=O)O)C(=O)O)cc3)c2c(=O)[nH]1 [Pemetrexed] (partner 0.2 µM)
An outline of the steps: as §1

Compound in another assay: CC1(C)CCC(CN2CCN(c3ccc(C(=O)NS(=O)(=O)c4ccc(NCC5CCOCC5)c([N+](=O)[O-])c4)c(Oc4cnc5[nH]ccc5c4)c3)CC2)=C(c2ccc(Cl)cc2)C1 [Venetoclax]
An outline of the steps: (§2)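 Lung cancer cell lines in 1536-well plates were kept overnight at 37 °C, then pinned with five library-drug doses (not always all listed) spaced by √10 on vehicle-anchored plates. After 5 days without medium change, cells were fixed, permeabilised and Hoechst-stained in one step, imaged at 4×, and nuclei were counted with MetaXpress. Viability is treated-well nuclei divided by vehicle-well nuclei, taken as the median over plates. Plates passed only with control CV below 25% and at least one doubling.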

Compound in the next assay: Cn1cnc2c(F)c(Nc3ccc(Br)cc3Cl)c(C(=O)NOCCO)cc21 [Selumetinib]
The procedure, abridged: as §2

This is an account of results in the supplement of paper PMC10307832.

Regarding NCI-H650, the relative viability is 1.07 in the assay with Venetoclax + Alpelisib (first compound 0.01 µM); 0.989 with Venetoclax + Alpelisib (first compound 0.03162 µM); 1.13 in the assay with Venetoclax + Alpelisib (first compound 0.3162 µM); 1.01 with Venetoclax + Alpelisib (first compound 1 µM); 1.05 with Selumetinib + Pemetrexed (first compound 0.02 µM); 1.25 with Selumetinib + Pemetrexed (first compound 0.06325 µM). The relative viability with Selumetinib + Pemetrexed (first compound 0.2 µM) was 1.19; with Selumetinib + Pemetrexed (first compound 0.6325 µM), 1.16; with Venetoclax (0.01 µM) it was 0.934; in the assay with Venetoclax (0.03162 µM), 1.05; in the assay with Venetoclax (0.1 µM), 0.876; in the assay with Venetoclax (0.3162 µM), 1.1. Besides, the relative viability turned out to be 0.855 with Venetoclax (1 µM); 1.1 with Selumetinib (0.02 µM); 1.09 with Selumetinib (0.06325 µM); 1.39 with Selumetinib (0.2 µM); 1.26 in the assay with Selumetinib (0.6325 µM).

For A-427, the relative viability turned out to be 1.02 in the assay with Venetoclax + Alpelisib (first compound 0.01 µM); 1.09 in the assay with Venetoclax + Alpelisib (first compound 0.03162 µM); 1.13 in the assay with Venetoclax + Alpelisib (first compound 0.1 µM); 1.07 in the assay with Venetoclax + Alpelisib (first compound 0.3162 µM); 1.17 in the assay with Venetoclax + Alpelisib (first compound 1 µM); 1.11 in the assay with Selumetinib + Pemetrexed (first compound 0.02 µM). In addition, the relative viability came to 1.05 with Selumetinib + Pemetrexed (first compound 0.06325 µM); 1.05 with Selumetinib + Pemetrexed (first compound 0.2 µM); 1.04 with Selumetinib + Pemetrexed (first compound 0.6325 µM); 0.892 in the assay with Venetoclax (0.01 µM); 1.14 with Venetoclax (0.03162 µM); 0.901 in the assay with Venetoclax (0.1 µM). Further, the relative viability in the assay with Venetoclax (0.3162 µM) is 1.08; in the assay with Venetoclax (1 µM) it was 0.998; in the assay with Selumetinib (0.02 µM) it was 1.1; with Selumetinib (0.06325 µM) it was 0.994; in the assay with Selumetinib (0.2 µM) it was 1.03; with Selumetinib (0.6325 µM) it was 1.05.

Regarding EMC-BAC-2, the relative viability was 0.707 in the assay with Venetoclax + Alpelisib (first compound 0.01 µM); 0.744 with Venetoclax + Alpelisib (first compound 0.03162 µM); 0.747 with Venetoclax + Alpelisib (first compound 0.1 µM); 0.73 with Venetoclax + Alpelisib (first compound 0.3162 µM); 0.687 in the assay with Venetoclax + Alpelisib (first compound 1 µM); 0.508 with Selumetinib + Pemetrexed (first compound 0.02 µM). Moreover, the relative viability with Selumetinib + Pemetrexed (first compound 0.06325 µM) was found to be 0.539; with Selumetinib + Pemetrexed (first compound 0.2 µM) it was 0.522; with Selumetinib + Pemetrexed (first compound 0.6325 µM), 0.574; in the assay with Venetoclax (0.01 µM), 0.977; in the assay with Venetoclax (0.03162 µM), 1.14; with Venetoclax (0.1 µM) it was 0.945. Besides, the relative viability with Venetoclax (0.3162 µM) was found to be 1.15; with Venetoclax (1 µM), 0.96; with Selumetinib (0.02 µM), 1.38; with Selumetinib (0.06325 µM) it was 1.16; in the assay with Selumetinib (0.2 µM) it was 1.06; with Selumetinib (0.6325 µM), 1.13.

For the cell line NCI-H520, the relative viability with Venetoclax + Alpelisib (first compound 0.01 µM) came to 0.893; in the assay with Venetoclax + Alpelisib (first compound 0.03162 µM) it was 1.09; with Venetoclax + Alpelisib (first compound 0.1 µM), 0.865; with Venetoclax + Alpelisib (first compound 0.3162 µM), 0.796; with Venetoclax + Alpelisib (first compound 1 µM), 0.847; with Selumetinib + Pemetrexed (first compound 0.02 µM), 0.654. In addition, the relative viability with Selumetinib + Pemetrexed (first compound 0.06325 µM) is 0.754; with Selumetinib + Pemetrexed (first compound 0.2 µM) it was 0.752; in the assay with Selumetinib + Pemetrexed (first compound 0.6325 µM), 0.731; with Venetoclax (0.01 µM), 0.923; with Venetoclax (0.03162 µM), 0.994; with Venetoclax (0.1 µM), 0.828. The relative viability came out at 0.971 in the assay with Venetoclax (0.3162 µM); 1 with Venetoclax (1 µM); 1.12 with Selumetinib (0.02 µM); 0.981 with Selumetinib (0.06325 µM); 1.08 with Selumetinib (0.2 µM); 1.04 with Selumetinib (0.6325 µM).

With LOU-NH91, the relative viability with Venetoclax + Alpelisib (first compound 0.01 µM) was 0.653; with Venetoclax + Alpelisib (first compound 0.03162 µM), 0.802; with Venetoclax + Alpelisib (first compound 0.1 µM), 0.689; with Venetoclax + Alpelisib (first compound 0.3162 µM), 0.791; with Venetoclax + Alpelisib (first compound 1 µM), 0.759; in the assay with Selumetinib + Pemetrexed (first compound 0.02 µM), 0.438. Also, the relative viability was 0.397 with Selumetinib + Pemetrexed (first compound 0.06325 µM); 0.458 with Selumetinib + Pemetrexed (first compound 0.2 µM); 0.385 in the assay with Selumetinib + Pemetrexed (first compound 0.6325 µM); 0.969 with Venetoclax (0.01 µM); 1.09 with Venetoclax (0.03162 µM); 0.942 in the assay with Venetoclax (0.1 µM). For the same cell line, the relative viability with Venetoclax (0.3162 µM) came to 0.954; with Venetoclax (1 µM) it was 0.925; with Selumetinib (0.02 µM), 0.935; with Selumetinib (0.06325 µM) it was 0.884; in the assay with Selumetinib (0.2 µM), 0.899; in the assay with Selumetinib (0.6325 µM), 0.901.

Take HOP-62: the relative viability stood at 0.924 in the assay with Venetoclax + Alpelisib (first compound 0.01 µM); 1.21 with Venetoclax + Alpelisib (first compound 0.03162 µM); 1.08 in the assay with Venetoclax + Alpelisib (first compound 0.1 µM); 1.07 with Venetoclax + Alpelisib (first compound 0.3162 µM); 0.9 in the assay with Venetoclax + Alpelisib (first compound 1 µM); 0.31 with Selumetinib + Pemetrexed (first compound 0.02 µM). Also, the relative viability with Selumetinib + Pemetrexed (first compound 0.06325 µM) stood at 0.382; with Selumetinib + Pemetrexed (first compound 0.2 µM) it was 0.348; with Selumetinib + Pemetrexed (first compound 0.6325 µM), 0.321; with Venetoclax (0.01 µM) it was 1; in the assay with Venetoclax (0.03162 µM) it was 1.05; with Venetoclax (0.1 µM), 0.989. Moreover, the relative viability with Venetoclax (0.3162 µM) is 0.973; in the assay with Venetoclax (1 µM), 0.927; with Selumetinib (0.02 µM) it was 1.02; in the assay with Selumetinib (0.06325 µM) it was 0.897; in the assay with Selumetinib (0.2 µM), 0.886; with Selumetinib (0.6325 µM), 0.549.

Consider NCI-H1563, for which the relative viability worked out at 1.03 with Venetoclax + Alpelisib (first compound 0.01 µM); 0.938 with Venetoclax + Alpelisib (first compound 0.03162 µM); 0.852 with Venetoclax + Alpelisib (first compound 0.1 µM); 0.987 with Venetoclax + Alpelisib (first compound 0.3162 µM); 1.03 with Venetoclax + Alpelisib (first compound 1 µM); 0.835 in the assay with Selumetinib + Pemetrexed (first compound 0.02 µM). In addition, the relative viability with Selumetinib + Pemetrexed (first compound 0.06325 µM) was found to be 0.778; in the assay with Selumetinib + Pemetrexed (first compound 0.2 µM), 0.918; in the assay with Selumetinib + Pemetrexed (first compound 0.6325 µM), 0.898; with Venetoclax (0.01 µM), 0.999; with Venetoclax (0.03162 µM), 0.963; with Venetoclax (0.1 µM) it was 0.971. Moreover, the relative viability with Venetoclax (0.3162 µM) was 1.04; in the assay with Venetoclax (1 µM) it was 1.07; in the assay with Selumetinib (0.02 µM) it was 0.957; in the assay with Selumetinib (0.06325 µM), 0.868; with Selumetinib (0.2 µM), 0.981; with Selumetinib (0.6325 µM), 0.91.

On to NCI-H1792, for which the relative viability came out at 0.674 with Venetoclax + Alpelisib (first compound 0.01 µM); 0.669 with Venetoclax + Alpelisib (first compound 0.03162 µM); 0.542 in the assay with Venetoclax + Alpelisib (first compound 0.1 µM); 0.616 with Venetoclax + Alpelisib (first compound 0.3162 µM); 0.622 in the assay with Venetoclax + Alpelisib (first compound 1 µM); 0.637 with Selumetinib + Pemetrexed (first compound 0.02 µM). The relative viability with Selumetinib + Pemetrexed (first compound 0.06325 µM) stood at 0.648; with Selumetinib + Pemetrexed (first compound 0.2 µM) it was 0.634; with Selumetinib + Pemetrexed (first compound 0.6325 µM) it was 0.557; in the assay with Venetoclax (0.01 µM) it was 0.892; with Venetoclax (0.03162 µM) it was 1.06; with Venetoclax (0.1 µM) it was 0.918. Also, the relative viability in the assay with Venetoclax (0.3162 µM) worked out at 0.98; with Venetoclax (1 µM) it was 0.856; with Selumetinib (0.02 µM), 0.901; with Selumetinib (0.06325 µM) it was 0.728; with Selumetinib (0.2 µM) it was 0.827; in the assay with Selumetinib (0.6325 µM), 0.689.
